Molecules are shown by their SMILES.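 Where inhibition never reached the appropriate level, the endpoint shown equals the highest concentration tested. Otherwise, values were interpolated linearly from a five-concentration, 48-hour dose response in 96-well plates. The concentration for full growth arrest is given as TGI.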

Results on 15 molecules are retold here after PubChem BioAssay (NCI).

Holding throughout (assay): growth of human tumour cells (NCI), 48 h
Experiment [1] concerns A549 NSCLC.
Experiment [2] has as its system CCRF-CEM leukemia.
The subject of experiment [3] is HOP-92 NSCLC.
In experiment [4] the test system is KM12 colon.
In experiment [5] the test system is MDA-MB-231 breast.
Experiment [6] concerns MOLT-4 leukemia.
Experiment [7] deals with OVCAR-4 ovarian.
In experiment [8] the test system is U251 CNS.
In experiment [9] the test system is UACC-257 melanoma.

Regarding `C[C@H](NC(=O)C(C)(Cc1ccc(O)cn1)NC(=O)c1ccccc1)c1ccccc1` (stereo partly drawn), the TGI in experiment [1], in [2], in experiment [3], in [4], in experiment [5] and in [6] was more than 100 µM throughout. Besides, the TGI in experiment [7], in experiment [8] and in experiment [9] was more than 100 µM in each case.
For `COC(=O)[C@@H]1C=CCN1S(=O)(=O)c1ccc(C)cc1`, the TGI was more than 100 µM in experiment [1]; 72.1 µM in [2]; more than 100 µM in experiment [3]; more than 100 µM in experiment [4]; more than 100 µM in experiment [5]; more than 100 µM in experiment [6]. Also, the TGI in experiment [7], in [8] and in [9] was more than 100 µM throughout.
For the molecule `O=C(NNC(=O)c1ccc(Cl)cc1NC(=O)C12CC3CC(CC(C3)C1)C2)c1ccc(Cl)cc1`, the TGI in experiment [1] was found to be 42.8 µM; in experiment [2], 62.5 µM; in [3] it was 51.9 µM; in [4], 54.4 µM; in [5], 51.2 µM; in experiment [6], 60.6 µM. Besides, the TGI in [7] was more than 100 µM; in [8] it was 45.4 µM; in [9] it was 66.1 µM.
On to `COc1c(NC(C)=O)c2ccccc2c2ccccc12`, for which the TGI in experiment [1], in experiment [2], in experiment [3], in experiment [4], in [5] and in [6] was more than 100 µM each time. The TGI in [7], in experiment [8] and in [9] was more than 100 µM throughout.
On to `C/C(CC(O)(C(F)(F)F)C(F)(F)F)=N\O`, for which the TGI in experiment [1], in experiment [2], in [3], in experiment [4], in experiment [5] and in experiment [6] was more than 10 µM each time. Moreover, the TGI in experiment [7], in [8] and in experiment [9] was more than 10 µM throughout.
For `Cc1cc(NS(=O)(=O)c2ccc(Nc3c4ccccc4nc4c(C(=O)NC(CO)(CO)CO)cccc34)cc2)no1`, the TGI was more than 100 µM in experiment [1]; 66.3 µM in experiment [2]; more than 100 µM in [3]; 71.4 µM in [4]; more than 100 µM in experiment [5]; 49 µM in experiment [6]. Also, the TGI in experiment [7], in experiment [8] and in experiment [9] was more than 100 µM each time.
Take `CC12CC(c3ccccc3O1)C(C(=O)Nc1nccs1)C(=O)N2` (stereo not drawn): the TGI in experiment [1], in experiment [2], in [3], in experiment [4], in experiment [5] and in experiment [6] was more than 100 µM in each case. The TGI in [7], in experiment [8] and in [9] was more than 100 µM throughout.
In the case of `Nc1ccnc2c1ncn2[C@H]1C[C@H](O)[C@@H](CO)O1`, the TGI in experiment [1], in experiment [2], in experiment [3], in experiment [4], in experiment [5] and in experiment [6] was more than 100 µM throughout. For the same molecule, the TGI in [7], in experiment [8] and in [9] was more than 100 µM in each case.
Regarding `O=C(NC1=C(Cl)C(=O)c2ccccc2C1=O)C(=O)c1c(O)c2ccccc2oc1=O`, the TGI is 6.07 µM in experiment [1]; more than 30.7 µM in experiment [2]; 32.3 µM in experiment [3]; 31.3 µM in [4]; 22.5 µM in experiment [5]; 18 µM in experiment [6]. Further, the results for the TGI in [7], in experiment [8] and in [9] were 19.4 µM, 20.9 µM and 3.17 µM, respectively.
`C=CC(C)(C)/C(=C\CO[Si](C(C)C)(C(C)C)C(C)C)C(=O)N(C)c1ccccc1I`: the TGI is 23.9 µM in experiment [1]; 22.6 µM in [2]; 22.2 µM in [3]; more than 100 µM in experiment [4]; 28.9 µM in experiment [5]; 25.2 µM in experiment [6]. Besides, the TGI in experiment [7] was 68.1 µM; in experiment [8], 25 µM; in experiment [9] it was 28.7 µM.
On to `Clc1cc(Cl)nc(Nc2ccc3c(c2)CCC3)n1`, for which the TGI is more than 100 µM in experiment [1]; 72.8 µM in experiment [2]; more than 100 µM in [3]; 59.1 µM in experiment [4]; more than 100 µM in experiment [5]; 69.6 µM in [6]. Moreover, the TGI in [7], in experiment [8] and in [9] was more than 100 µM in each case.
In the case of `O=Cc1c2c(cc3c1CC1(C3)Cc3cc4c(c(C=O)c3C1)CCC4)CCC2`, the TGI in experiment [1] was 87.5 µM; in experiment [2], 58.4 µM; in experiment [3], 56.5 µM; in experiment [5], 70.1 µM; in [6] it was 48.7 µM; in experiment [7], 72.1 µM. In addition, the TGI in [8] was 38.4 µM; in experiment [9], more than 100 µM.
As for `O=C(O)c1c(CC(Cc2ccccc2)C(=O)O)ccc2c1CCC2` (stereo not drawn), the TGI in experiment [1], in [2], in experiment [3], in [4], in experiment [5] and in experiment [6] was more than 100 µM in each case. The TGI in experiment [7], in experiment [8] and in experiment [9] was more than 100 µM in each case.
In the case of `CN1CCC(O)(OC(=O)C(c2ccccc2)C2(O)CCCC2)CC1` (stereo not drawn), the TGI in experiment [1], in [2], in experiment [3], in experiment [4], in experiment [5] and in experiment [6] was more than 100 µM each time. For the same molecule, the TGI in experiment [7], in experiment [8] and in experiment [9] was more than 100 µM in each case.
With `C[C@]12CC[C@H]3[C@@H](CC=C4C[C@@H](O)CC[C@@]43C)[C@@H]1C/C(=C\c1ccc([N+](=O)[O-])cc1)[C@@H]2O`, the TGI is 25.1 µM in experiment [1]; more than 100 µM in [2]; 91.7 µM in [3]; more than 100 µM in [4]; 22.6 µM in experiment [5]; more than 100 µM in experiment [6]. Besides, the TGI in [7] came out at 3.7 µM; in experiment [9] it was 59 µM.
